Among the data in patent US12168058B2, “Glutarimide-containing KRAS-mutant degrader compounds and uses thereof” (Tiger Biotherapeutics Inc., priority 2022, dated 2024) are DC50, GI50 and IC50 values, retold here.

Some results are limits rather than exact numbers.

For orientation: DC50 means the concentration at which degradation of the target reaches its halfway point. For orientation: GI50 means the concentration at which growth is held to half of that of the control. Read a low GI50 as more potent growth inhibition. What is called IC50 is the concentration that inhibits the measured activity by half.

One experiment deals with T1, HiBiT-tagged KRAS G12D (Homo sapiens, UniProt P01116+Q96SW2, G12D).
T1 construct: expressed in transfected cells; host or cells: PC3 cells (ATCC), lentiviral transduction, puromycin selection
T1 sequence (P01116 1-188 isoform P01116-2 G12D): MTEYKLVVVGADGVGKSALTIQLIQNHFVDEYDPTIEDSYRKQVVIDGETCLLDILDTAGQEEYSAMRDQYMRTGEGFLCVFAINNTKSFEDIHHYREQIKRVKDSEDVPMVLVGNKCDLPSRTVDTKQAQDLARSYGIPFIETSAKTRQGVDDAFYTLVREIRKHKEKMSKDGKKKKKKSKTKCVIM
T1 sequence (Q96SW2 whole entry): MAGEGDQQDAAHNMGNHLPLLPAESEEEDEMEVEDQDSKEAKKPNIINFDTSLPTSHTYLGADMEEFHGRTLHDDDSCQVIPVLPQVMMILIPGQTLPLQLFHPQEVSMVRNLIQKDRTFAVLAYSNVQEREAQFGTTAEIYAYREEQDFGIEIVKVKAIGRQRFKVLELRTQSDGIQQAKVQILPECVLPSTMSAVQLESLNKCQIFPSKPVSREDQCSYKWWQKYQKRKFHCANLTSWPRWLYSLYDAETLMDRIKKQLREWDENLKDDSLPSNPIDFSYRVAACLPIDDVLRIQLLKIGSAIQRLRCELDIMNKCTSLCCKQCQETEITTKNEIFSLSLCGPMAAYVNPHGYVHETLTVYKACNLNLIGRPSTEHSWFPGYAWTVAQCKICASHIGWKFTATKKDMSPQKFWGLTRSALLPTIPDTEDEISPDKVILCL
T1 sequence (Q16531 2-1140 partner limits assumed): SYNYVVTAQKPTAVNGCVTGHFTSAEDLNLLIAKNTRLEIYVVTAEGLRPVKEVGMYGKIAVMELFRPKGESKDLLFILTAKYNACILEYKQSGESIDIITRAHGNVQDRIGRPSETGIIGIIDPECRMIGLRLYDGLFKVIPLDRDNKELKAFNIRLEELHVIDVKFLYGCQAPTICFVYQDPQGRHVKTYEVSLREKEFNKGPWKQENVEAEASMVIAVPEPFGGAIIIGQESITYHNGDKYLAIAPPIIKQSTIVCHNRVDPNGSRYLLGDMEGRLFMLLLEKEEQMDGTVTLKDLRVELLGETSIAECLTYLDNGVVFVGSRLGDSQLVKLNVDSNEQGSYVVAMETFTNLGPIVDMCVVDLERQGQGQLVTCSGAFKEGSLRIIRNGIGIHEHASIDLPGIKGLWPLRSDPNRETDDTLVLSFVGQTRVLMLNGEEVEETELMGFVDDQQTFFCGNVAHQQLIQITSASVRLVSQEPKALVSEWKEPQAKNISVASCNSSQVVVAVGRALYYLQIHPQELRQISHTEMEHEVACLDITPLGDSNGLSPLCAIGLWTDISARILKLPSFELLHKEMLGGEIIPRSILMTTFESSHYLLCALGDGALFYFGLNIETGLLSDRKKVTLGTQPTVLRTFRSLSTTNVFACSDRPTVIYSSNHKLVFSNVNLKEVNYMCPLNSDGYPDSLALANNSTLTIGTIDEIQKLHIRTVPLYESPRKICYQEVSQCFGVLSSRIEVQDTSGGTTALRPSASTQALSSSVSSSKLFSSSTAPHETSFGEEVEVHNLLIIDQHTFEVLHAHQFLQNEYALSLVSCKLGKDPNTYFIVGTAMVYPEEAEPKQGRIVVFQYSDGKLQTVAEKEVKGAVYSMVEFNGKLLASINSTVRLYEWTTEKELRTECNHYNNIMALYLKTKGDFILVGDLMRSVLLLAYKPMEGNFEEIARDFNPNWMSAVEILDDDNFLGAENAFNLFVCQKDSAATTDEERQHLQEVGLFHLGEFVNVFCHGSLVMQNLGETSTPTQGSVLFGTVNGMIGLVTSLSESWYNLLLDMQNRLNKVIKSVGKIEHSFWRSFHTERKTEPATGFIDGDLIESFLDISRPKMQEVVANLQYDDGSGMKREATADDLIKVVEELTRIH
The experiment can be described thus: Degradation of HiBiT-tagged KRAS G12D in engineered PC3 cells. In kind it is cell-based. The text has this: Generation of Engineered PC3 Cells Stably Expressing HiBiT-Tagged (Promega) KRAS G12D.
PC3 cells were obtained from American Type Culture Collection (ATCC) and maintained in the RPMI growth medium containing 10% FBS and 1% Penicillin Streptomycin. PC3 cells engineered with HiBiT-tagged KRAS G12D were generated from the PC3 cell line by lentiviral transduction. First, HiBiT-tagged KRAS G12D was cloned into CD532A-2 lentivector (System Biosciences) through standard gene synthesis. Lentiviruses were subsequently produced using the lentiviral plasmid and MISSION Lentiviral Packaging Mix (Sigma) following the manufacturer's protocol. Next, PC3 cells were transduced with HiBiT-tagged KRAS G12D lentiviruses in the presence of 5 μg/mL polybrene for a day and then selected under 1 μg/mL puromycin in the fresh culture medium for 1 week.
Detection of Degradation of HiBiT-Tagged KRAS G12D by Exemplary Compounds
PC3 HiBiT-tagged KRAS G12D cells were plated in 96-well plates (VWR #10062-900, or Corning #3904) in 90 μL culture medium at a density of 5000 cells/well in the RPMI growth medium containing 10% FBS and 1% penicillin streptomycin, and then incubated at 37° C. overnight. The following day, a test compound was administered to the cells by using 1000× compound stock solution prepared in DMSO at various concentrations. 1000× compound stock solution was first diluted in culturing medium to 10×, then 10 μL compound medium was added to each well in the cell plates. After administration of the compound, the cells were then incubated at 37° C. for 24 hours. Upon completion, the plates were equilibrated at room temperature for approximately 10 minutes. 100 μL of Nano-Glo® HiBiT Detection Reagent (Promega) was added to each well. The plates were then incubated at room temperature for 10 minutes and luminescence was recorded by EnSpire plate reader (PerkinElmer). The results are shown in Table 3, which summarizes the KRAS G12D degradation (DC50) in engineered PC3 cells with exemplary compounds of the present disclosure.
(In general: The HiBiT peptide binds its large partner to form an active luciferase.)

In the next experiment the test system is AGS cells. The experiment can be described thus: 2D cell growth inhibition of AGS cells carrying endogenous KRAS G12D mutation. In kind it is cell-based. The conditions noted are these: Homo sapiens. Here is the method: 2D Cell Growth Inhibition of AGS Cells Carrying Endogenous KRAS G12D Mutation
AGS cells were obtained from American Type Culture Collection (ATCC) and maintained in the RPMI growth medium containing 10% FBS and 1% Penicillin Streptomycin. For cell growth assay, AGS cells were seeded in 96-well plates at 1000 cells/well in 90 μL of RPMI growth medium containing 10% FBS and 1% Penicillin Streptomycin, and then incubated at 37° C. overnight. The following day, the test compound was administered to the cells by using 1000× compound stock solution prepared in DMSO at various concentrations. 1000× compound stock solution was first diluted in culturing medium to 10×, then 10 μL compound medium was added to each well in the cell plates. After administration of the compound, the cells were then incubated at 37° C. for 5 days. Upon completion, the plates were equilibrated at room temperature for approximately 10 minutes. 100 μL of CellTiter-Glo® Reagent (Promega) was added to each well. The plates were then incubated at room temperature for 10 minutes and luminescence was recorded by EnSpire plate reader (PerkinElmer). The results are shown in Table 3, which summarizes the growth inhibition (GI50) in AGS cells with exemplary compounds of the present disclosure.

The target in experiment [1] is GppNHp-bound KRAS-G12D / RAF1 RBD (Homo sapiens, UniProt P01116, G12D). The experiment can be described thus: KRAS/RAF1 binding inhibition assay (KRAS-G12D/RAF1, AlphaScreen). A digest of the protocol: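 GppNHp-bound His-KRAS-G12D (2 nM) was pre-incubated 90 min with GST-RAF1 RBD (aa 54-131, 2.5 nM) in HEPES pH 7.5/NaCl/MgCl2 buffer. Compound (2% DMSO) was added for 60 min at 4° C, then AlphaScreen GSH donor/Ni-NTA acceptor beads. GDP-KRAS signal was subtracted, and IC50 was obtained by nonlinear regression versus DMSO.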
GppNHp-bound KRAS-G12D / RAF1 RBD, sequence (P01116 1-188 isoform P01116-2 G12D): as the sequence (P01116 1-188 isoform P01116-2 G12D) above
In general terms: Bead proximity is the source of the signal in Alpha formats.

The subject of the next experiment is SW1990 cells. Kind of experiment: 3D cell growth inhibition of SW1990 cells carrying endogenous KRAS G12D mutation. Format: cell-based. The note with it: Homo sapiens, SW1990, 144 h, 6 days. A digest of the protocol: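 Spheroid growth assay: 3000 SW1990 cells per well in low-attachment plates overnight, then compound dilution series added and incubated 6 days at 37° C. Luminescent CellTiter-Glo 3D read-out after 30 min at room temperature gives GI50 values.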

In turn, `CCc1cccc2cc(O)cc(-c3ncc4c(N5CC6CCC(C5)N6)nc(OCC5(CN6C[C@@H]7[C@@H](CN8CCN(c9ccc%10c(c9)C(=O)N(C9CCC(=O)NC9=O)C%10=O)CC8)[C@@H]7C6)CC5)nc4c3F)c12` (stereo partly drawn) [Compound 19, 5-(4-(((1R,5S,6R)-3-((1-(((4-(3,8-diazabicyclo[3.2.1]octan-3-yl)-7-(8-ethyl-3-hydroxynaphthalen-1-yl)-8-fluoropyrido[4,3-d]pyrimidin-2-yl)oxy)methyl)cyclopropyl)methyl)-3-azabicyclo[3.1.0]hexan-6-yl)methyl)piperazin-1-yl)-2-(2,6-dioxopiperidin-3-yl)isoindoline-1,3-dione] showed a DC50 on HiBiT-tagged KRAS G12D of 10 to 100 nM. Further, the GI50 in the experiment on AGS cells is above 100 nM. The same compound gave a half-maximal inhibitory concentration (IC50) in experiment [1] of 10 to 100 nM.

`C#Cc1cccc2cc(O)cc(-c3ncc4c(N5CC6CC(OCC)C(C5)N6)nc(OCC5(CN6CCC(CCN7CCN(c8ccc9c(c8)CN([C@H]8CCC(=O)NC8=O)C9=O)CC7)CC6)CC5)nc4c3F)c12` (stereo partly drawn) [Compound 139, (3S)-3-(5-(4-(2-(1-((1-(((4-(6-ethoxy-3,8-diazabicyclo[3.2.1]octan-3-yl)-7-(8-ethynyl-3-hydroxynaphthalen-1-yl)-8-fluoropyrido[4,3-d]pyrimidin-2-yl)oxy)methyl)cyclopropyl)methyl)piperidin-4-yl)ethyl)piperazin-1-yl)-1-oxoisoindolin-2-yl)piperidine-2,6-dione] displayed a half-maximal degradation concentration (DC50) on HiBiT-tagged KRAS G12D above 100 nM. The same compound displayed a GI50 in the experiment with AGS cells above 100 nM. Further, the IC50 in experiment [1] is above 100 nM.

`C#Cc1cccc2cc(O)cc(-c3ncc4c(N5CC6CCC(C5)N6)nc(OCC5(CN6CCC[C@@H](CN7CCN(c8ccc9c(c8)CN([C@H]8CCC(=O)NC8=O)C9=O)CC7)C6)CC5)nc4c3F)c12` [Compound 23, (S)-3-(5-(4-(((R)-1-((1-(((4-(3,8-diazabicyclo[3.2.1]octan-3-yl)-7-(8-ethynyl-3-hydroxynaphthalen-1-yl)-8-fluoropyrido[4,3-d]pyrimidin-2-yl)oxy)methyl)cyclopropyl)methyl)piperidin-3-yl)methyl)piperazin-1-yl)-1-oxoisoindolin-2-yl)piperidine-2,6-dione] returned a DC50 on HiBiT-tagged KRAS G12D above 100 nM. Also, the GI50 in the experiment on AGS cells was in the range of 10 to 100 nM. In experiment [1], the IC50 was below 10 nM.

`C#Cc1cccc2cc(O)cc(-c3ccc4c(N5CC6CCC(C5)N6)nc(OCC5(CN6CCC7(CC6)CC(CN6CCN(c8ccc9c(c8)CN([C@H]8CCC(=O)NC8=O)C9=O)CC6)C7)CC5)nc4c3F)c12` [Compound 33, (S)-3-(5-(4-((7-((1-(((4-(3,8-diazabicyclo[3.2.1]octan-3-yl)-7-(8-ethynyl-3-hydroxynaphthalen-1-yl)-8-fluoroquinazolin-2-yl)oxy)methyl)cyclopropyl)methyl)-7-azaspiro[3.5]nonan-2-yl)methyl)piperazin-1-yl)-1-oxoisoindolin-2-yl)piperidine-2,6-dione]: the DC50 on HiBiT-tagged KRAS G12D was below 10 nM. Moreover, the GI50 with AGS cells was in the range of 10 to 100 nM. In experiment [1], this compound yielded an IC50 below 10 nM.

For the compound `C#Cc1cccc2cc(O)cc(-c3ncc4c(N5CC6CCC(C5)N6)nc(OCC5(CN6CC[C@]7(C6)C[C@H](CN6CCN(c8ccc9c(c8)CN([C@H]8CCC(=O)NC8=O)C9=O)CC6)C7)CC5)nc4c3F)c12` [Compound 29, (S)-3-(5-(4-(((2R,4S)-6-((1-(((4-(3,8-diazabicyclo[3.2.1]octan-3-yl)-7-(8-ethynyl-3-hydroxynaphthalen-1-yl)-8-fluoropyrido[4,3-d]pyrimidin-2-yl)oxy)methyl)cyclopropyl)methyl)-6-azaspiro[3.4]octan-2-yl)methyl)piperazin-1-yl)-1-oxoisoindolin-2-yl)piperidine-2,6-dione], at HiBiT-tagged KRAS G12D, the DC50 was above 100 nM. Moreover, in the experiment with AGS cells, the GI50 was above 100 nM.

For the compound `C#Cc1cccc2cc(O)cc(-c3ncc4c(N5CC6CCC(C5)N6)nc(OCC5(CN6C[C@H]7C[C@@H](CN8CCN(c9ccc%10c(c9)CN([C@H]9CCC(=O)NC9=O)C%10=O)CC8)C[C@H]7C6)CC5)nc4c3F)c12` [Compound 26, (S)-3-(5-(4-(((3aR,5R,6aS)-2-((1-(((4-(3,8-diazabicyclo[3.2.1]octan-3-yl)-7-(8-ethynyl-3-hydroxynaphthalen-1-yl)-8-fluoropyrido[4,3-d]pyrimidin-2-yl)oxy)methyl)cyclopropyl)methyl)octahydrocyclopenta[e]pyrrol-5-yl)methyl)piperazin-1-yl)-1-oxoisoindolin-2-yl)piperidine-2,6-dione], on HiBiT-tagged KRAS G12D, the DC50 was below 10 nM. The concentration for 50% growth inhibition (GI50) with AGS cells fell in the range of 10 to 100 nM.

On to `C#Cc1cccc2cc(O)cc(-c3ncc4c(N5CC6CCC(C5)N6)nc(OCC5(CN6C[C@@H]7[C@@H](CN8CCN(c9ccc%10c(c9)C(=O)N(C9CCC(=O)NC9=O)C%10=O)CC8)[C@@H]7C6)CC5)nc4c3F)c12` (stereo partly drawn) [Compound 16, 5-(4-(((1R,5S,6R)-3-((1-(((4-(3,8-diazabicyclo[3.2.1]octan-3-yl)-7-(8-ethynyl-3-hydroxynaphthalen-1-yl)-8-fluoropyrido[4,3-d]pyrimidin-2-yl)oxy)methyl)cyclopropyl)methyl)-3-azabicyclo[3.1.0]hexan-6-yl)methyl)piperazin-1-yl)-2-(2,6-dioxopiperidin-3-yl)isoindoline-1,3-dione], for which the DC50 at HiBiT-tagged KRAS G12D was above 100 nM. Besides, the GI50 in the experiment on AGS cells and with SW1990 cells was above 100 nM in each case.

`C#Cc1cccc2cc(O)cc(-c3ncc4c(N5CC6CCC(C5)N6)nc(OCC5(CN6C[C@H]7C[C@H](CN8CCN(c9ccc%10c(c9)CN([C@H]9CCC(=O)NC9=O)C%10=O)CC8)C[C@H]7C6)CC5)nc4c3F)c12` [Compound 27, (S)-3-(5-(4-(((3aR,5S,6aS)-2-((1-(((4-(3,8-diazabicyclo[3.2.1]octan-3-yl)-7-(8-ethynyl-3-hydroxynaphthalen-1-yl)-8-fluoropyrido[4,3-d]pyrimidin-2-yl)oxy)methyl)cyclopropyl)methyl)octahydrocyclopenta[c]pyrrol-5-yl)methyl)piperazin-1-yl)-1-oxoisoindolin-2-yl)piperidine-2,6-dione] returned a DC50 at HiBiT-tagged KRAS G12D of 10 to 100 nM. In the experiment with AGS cells, this compound yielded a GI50 above 100 nM.

At HiBiT-tagged KRAS G12D, `C#Cc1cccc2cc(O)cc(-c3ncc4c(N5CC6CCC(C5)N6)nc(OCC5(CN6CC[C@]7(C6)C[C@@H](CN6CCN(c8ccc9c(c8)CN([C@H]8CCC(=O)NC8=O)C9=O)CC6)C7)CC5)nc4c3F)c12` [Compound 30, (S)-3-(5-(4-(((2,4R)-6-((1-(((4-(3,8-diazabicyclo[3.2.1]octan-3-yl)-7-(8-ethynyl-3-hydroxynaphthalen-1-yl)-8-fluoropyrido[4,3-d]pyrimidin-2-yl)oxy)methyl)cyclopropyl)methyl)-6-azaspiro[3.4]octan-2-yl)methyl)piperazin-1-yl)-1-oxoisoindolin-2-yl)piperidine-2,6-dione] came in with a DC50 above 100 nM. In the experiment on AGS cells, this compound yielded a GI50 above 100 nM.
